Where no end group is shown, it is not given here.
What was measured:
[1] = system: allergen specific T cells; test: T cell proliferation assay (72 h) on donor derived T cell lines (TCL02/TCL03); type: cell-based, human; details: for T cell response in % of the donors tested: single peptide; for Proliferation % donor coverage (TCL-02 DK1): T cell lines TCL-02 DK1, 30 donors, hit criteria SI>=2, CPM>=1000; for Proliferation strength (TCL-02 DK1): T cell lines TCL-02 DK1, strength of response (average relative magnitude)
Procedure, shortened: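 CD8-depleted PBMCs from grass-allergic donors stimulated with natural grass allergen mix (nPhl p 1 0.5 μg/ml) to raise T cell lines; restimulated with irradiated APCs, allergens or PHA-P (0.5 μg/ml) plus rIL-2. Proliferation to overlapping 20-mer and selected 15-mer grass peptides tested with TCL02 (day 24) or TCL03 (day 34).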

[2] = Peptide solubility by visual inspection; type: physicochemical; on Visual inspection after centrifugation pH 7: key: ok: clear solution; +: very small precipitation only visible with a magnifier; ++: precipitation/turbid solution; +++: more precipitation/turbid solution
Procedure, shortened: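 Peptides were dissolved in water (pH 3-5) or 250 mM D-mannitol with 25 mM sodium acetate pH 4.5 or 25 mM sodium phosphate pH 7.0. Solutions were inspected visually for turbidity and particles before and after filtration and after centrifugation for pellets, with OD of filtered material also measured.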

[3] = system: grass pollen allergic donor derived TCL-03 lines; test: Extended cross-reactivity study, proliferation on TCL03 DK1+DK2 (Study XR2), scoring; type: cell-based, human; details: study XR2; for Cross-reactivity score, Dac g: homologue from Dac g; for Cross-reactivity score, Dac g / Cross-reactivity score, Fes p / Cross-reactivity score, Lol p / Cross-reactivity score, Pha a / Cross-reactivity score, Poa p / Cross-reactivity score, Cyn d / Cross-reactivity score, Pas n / Cross-reactivity score, Sor h: score 0 to 7; for Cross-reactivity score, Fes p: homologue from Fes p; for Cross-reactivity score, Lol p: homologue from Lol p; for Cross-reactivity score, Pha a: homologue from Pha a; for Cross-reactivity score, Poa p: homologue from Poa p; for Cross-reactivity sum: scores of all species added; for Cross-reactivity/species: sum divided by the number of species measured; for Cross-reactivity score, Cyn d: homologue from Cyn d; for Cross-reactivity score, Pas n: homologue from Pas n; for Cross-reactivity score, Sor h: homologue from Sor h
[4] = 3 mg/mL, acetate salt, non-filtered, 250 mM D-Mannitol and 25 mM sodium phosphate, pH 7.0

Substance | T cell response in % of the donors tested [1] [%] | solubility in aqueous solutions [2] | Cross-reactivity score, Dac g [3] | Cross-reactivity score, Fes p [3] | Cross-reactivity score, Lol p [3] | Cross-reactivity score, Pha a [3] | Cross-reactivity score, Poa p [3] | Cross-reactivity sum [3] | Cross-reactivity/species [3] | solubility, 1st round of solubility screening [2] | Proliferation % donor coverage (TCL-02 DK1) [1] [%] | Proliferation strength (TCL-02 DK1) [1] | Visual inspection after 60 min pH 7 [2, 4] | Cross-reactivity score, Cyn d [3] | Cross-reactivity score, Pas n [3] | Cross-reactivity score, Sor h [3] | Visual inspection after 60 min pH 4.5 ([2]; 3 mg/mL, acetate salt, non-filtered, 250 mM D-Mannitol and 25 mM sodium acetate, pH 4.5) | Visual inspection after centrifugation pH 4.5 ([2]; 3 mg/mL, acetate salt, non-filtered, 250 mM D-Mannitol and 25 mM sodium acetate, pH 4.5, after centrifugation) | Visual inspection after centrifugation pH 7 ([2]; 3 mg/mL, acetate salt, non-filtered, 250 mM D-Mannitol and 25 mM sodium phosphate, pH 7.0, after centrifugation)
AYESYKFIPALEAAVKQAYA-OH [peptide 285] | ~50 | surprisingly good solubility in aqueous solutions | 6 | 6 | 6 | 6 | 7 | 31 | 6.2 |  |  |  |  |  |  |  |  |  | 
DKYRTFVATFGAASNKAFAE-OH [peptide 231] | ~40 |  |  |  |  |  |  |  |  | soluble |  |  |  |  |  |  |  |  | 
PANDKFTVFEAAFNNAIKAS-OH [compound 70] |  |  |  |  |  |  |  |  |  | soluble | 46.67 | 8.10 |  |  |  |  |  |  | 
STGGAYESYKFIPALEAAVK-OH [compound 71] | ~50 | surprisingly good solubility in aqueous solutions | 5 | 5 | 5 | 5 | 4 | 24 | 4.8 | soluble | 46.67 | 8.20 | tread + |  |  |  |  |  | 
TDDNEEPIAPYHFDLSGHAF-OH [peptide 204] | ~40 | surprisingly good solubility in aqueous solutions | 7 | 7 | 7 | 7 | 1.5 | 34 | 4.25 | soluble |  |  |  | 1.5 | 1 | 2 |  |  | 
VATLSEALRIIAGTLEVHAV-OH [compound 67] |  |  |  |  |  |  |  |  |  |  | 43.33 | 7.30 |  |  |  |  |  |  | 
WGAIWRIDTPDKLTGPFTVR-OH [peptide 211] | ~40 | surprisingly good solubility in aqueous solutions | 5 | 4 | 4 | 7 | 3 | 25 | 3.12 | soluble |  |  | particles + | 0.5 | 1 | 0.5 | + particles, | ++ | +++

Reference: patent US20180207228A1, “PEPTIDE COMBINATIONS AND USES THEREOF FOR TREATING GRASS ALLERGY” (ALK-Abelló A/S, priority 2015, published 2018)
